Legend:
[1] = biological target: T1, Cysteineless Mouse MDR3 P-glycoprotein (Mus musculus, UniProt P21447, C1070A/C1121A/C1223A/C133A/C427A/C638A/C669A/C713A/C952A); assay: SL-ATP binding to P-gp by ESR spectroscopy; conditions: for Maximum ATP binding mol SL-ANP bound/mol P-gp: SL-ATP titration in presence of compound
T1 construct: made in house; host or cells: Pichia pastoris
Text: Determination of the possible mode of ATP hydrolysis inhibition by the identified P-glycoprotein inhibitors. The mode of hydrolysis of ATP by P-glycoprotein was investigated by measuring the maximal binding stoichiometry and binding affinity of an analog of ATP, SL-ATP, and by Electron Spin Resonance (ESR) spectroscopy, similar to in both the presence and absence of the identified inhibitors.
The high-field signal of the freely mobile, unbound SL-ATP is compared and is used to calculate the amount of ATP-analog bound to P-glycoprotein. Binding of SL-ATP in the absence of any P-glycoprotein inhibitor saturated at about 2 mol of SL-nucleotide bounds per mol of P-glycoprotein.
FIGS. 2A-2D are plots showing the effects of P-glycoprotein ATP hydrolysis inhibitors on nucleotide binding. Between 30 and 50 microM Pgp were incubated with 50 microM inhibitor compound. Increasing amounts of SL-ATP were added. The ESR signal of the free SL-ATP in the presence of P-glycoprotein and inhibitor was compared to that in the absence of P-glycoprotein. The graphs represent at least 3 individual studies each using 3 to 5 different P-glycoprotein preparations.

[2] = biological target: P-gp (Homo sapiens, UniProt P08183); conditions: for Transport substrate for P-gp: not told
Sequence of P-gp (P08183 whole entry): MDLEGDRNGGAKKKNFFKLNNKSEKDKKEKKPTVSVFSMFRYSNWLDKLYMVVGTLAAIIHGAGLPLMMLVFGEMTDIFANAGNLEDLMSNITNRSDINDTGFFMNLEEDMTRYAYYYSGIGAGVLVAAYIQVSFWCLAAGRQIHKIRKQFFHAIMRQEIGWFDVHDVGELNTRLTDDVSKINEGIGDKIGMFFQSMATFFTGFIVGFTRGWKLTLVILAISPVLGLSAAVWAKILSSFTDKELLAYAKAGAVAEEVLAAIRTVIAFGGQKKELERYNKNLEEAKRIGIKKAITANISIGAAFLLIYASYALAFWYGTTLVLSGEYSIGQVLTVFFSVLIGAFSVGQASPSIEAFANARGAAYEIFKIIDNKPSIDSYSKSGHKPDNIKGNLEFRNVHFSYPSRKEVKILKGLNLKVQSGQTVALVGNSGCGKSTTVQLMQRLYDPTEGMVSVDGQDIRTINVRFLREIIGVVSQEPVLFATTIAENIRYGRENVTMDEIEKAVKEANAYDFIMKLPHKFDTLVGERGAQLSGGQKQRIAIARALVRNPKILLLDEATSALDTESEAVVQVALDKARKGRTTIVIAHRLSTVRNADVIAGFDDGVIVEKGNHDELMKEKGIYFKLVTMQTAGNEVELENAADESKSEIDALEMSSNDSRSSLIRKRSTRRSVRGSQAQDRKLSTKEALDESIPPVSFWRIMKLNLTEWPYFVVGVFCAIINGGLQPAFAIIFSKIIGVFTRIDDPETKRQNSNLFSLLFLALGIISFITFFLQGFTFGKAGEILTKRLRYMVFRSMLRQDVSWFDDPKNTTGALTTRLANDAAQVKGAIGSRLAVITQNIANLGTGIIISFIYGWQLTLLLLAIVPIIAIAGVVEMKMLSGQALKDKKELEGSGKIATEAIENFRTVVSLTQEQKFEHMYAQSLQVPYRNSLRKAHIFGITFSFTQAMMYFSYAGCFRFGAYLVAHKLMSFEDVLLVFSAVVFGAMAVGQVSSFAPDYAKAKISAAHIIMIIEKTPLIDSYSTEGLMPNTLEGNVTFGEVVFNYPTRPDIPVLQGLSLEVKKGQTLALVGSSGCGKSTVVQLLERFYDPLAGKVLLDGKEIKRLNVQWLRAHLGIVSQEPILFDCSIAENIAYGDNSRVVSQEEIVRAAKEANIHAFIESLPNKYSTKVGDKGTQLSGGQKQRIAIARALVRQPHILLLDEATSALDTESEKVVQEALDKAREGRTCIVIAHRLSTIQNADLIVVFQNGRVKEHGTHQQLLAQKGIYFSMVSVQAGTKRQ
Protocol: Stimulation of basal ATPase by 29-variants was used as an indicator that a compound may be a P-gp transport substrate. Effects on stimulated P-gp ATPase activity indicated whether a compound directly interfered with ATP usage by the protein (***, p<0.001; **, p<0.01; *, p<0.1; NS, not significant). Quantitative cellular accumulation of 29-variants was performed using LC-MS/MS and is presented as a ratio of the cellular amounts of 29-variants in the presence of P-gp inhibitor, tariquidar, divided by amounts accumulated in its absence. […] Binding of an ATP analog, SL-ATP, to P-gp was used to determine whether ATP binding to P-gp was affected by the 29-variants. Values+/−standard deviations are shown for at least three different P-gp preparations and three independent SL-ATP titration experiments. The values for SL-ATP binding in the presence of 29 were taken directly from Brewer et al. (2014).
Intracellular accumulation of compound 29 variants. Cell accumulation assays for each of the 29 variants were performed as in reference^28 to more directly assess whether the compounds were indeed transport substrates for P-gp.

[3] = biological target: T1, Cysteineless Mouse MDR3 P-glycoprotein; assay: ATP hydrolysis by purified P-glycoprotein, basal and verapamil-stimulated; assay type: biochemical; conditions: for Stimulated ATPase (% of DMSO) / Effect on stimulated ATPase: in the presence of verapamil; for Stimulated ATPase (% of DMSO) / Basal ATPase (% of DMSO): ± standard deviation; for Basal ATPase (% of DMSO) / Effect on basal ATPase: without added transport substrate
Text: The efficacy of molecules identified using in silico methods to function as potential inhibitors of P-glycoprotein was initially tested with regard to their capability to inhibit ATP hydrolysis by purified P-glycoprotein. For this purpose, a well-established activity assay for ATP hydrolyzing enzymes that uses the oxidation of NADH to NAD+ through coupling the reactions of pyruvate kinase and lactate dehydrogenase to the hydrolysis of ATP was adapted to medium throughput conditions on 96 well plates. […] In this set-up, the effects of potential small molecule inhibitors on the ATP hydrolysis activity of P-glycoprotein were tested in duplicate or triplicate and were repeated at least two times using different enzyme preparations.
The P-glycoprotein used in these assays was a close relative of the human P-glycoprotein that is found in mice. A mutant version of the mouse P-glycoprotein where all intrinsic cysteine amino acids had been replaced by alanine residues was recombinantly expressed in the yeast Pichia pastoris and used for these initial tests. […] Prior to testing the ATP-hydrolysis activity, P-glycoprotein was incubated with phosphatidyl choline for stabilization of the enzyme during the assay.
Different concentrations of the to-be-tested small molecules were added and pre-incubated at 37° C. The ATP hydrolysis reaction was then started by adding equal volume of double concentrated ATPase cocktail. The final ATP concentration in the reaction was 2 mM. The reaction was allowed to proceed for 20 minutes, the rate of ATP hydrolysis was calculated using the molar extinction coefficient of NADH, and the one-to-one relationship of ATP hydrolyzed and NADH oxidized.
Evaluation of mode of inhibition of P-glycoprotein by Group 1 and Group 2 variants of compound 29. To assess the mode of inhibition of P-gp by the novel variants of P-gp inhibitor 29, ATP hydrolysis by P-gp was evaluated in the presence or absence of the variants. […] Murine P-gp (MDR3) expressed in Pichia pastoris that had all naturally occurring cysteines replaced with alanine, was used^45, 46. It is widely assumed that the ATP hydrolytic rate of P-gp is stimulated in the presence of transport substrates when compared to ATP hydrolysis in the absence of transport substrates. Assays comparing these rates can therefore be useful not only in identifying inhibitors of P-gp catalyzed ATP hydrolysis, but also to potentially infer whether a compound might be a transport substrate if basal ATPase rates are stimulated by the addition of a compound.

[4] = biological target: Normal Human MDR1 P-glycoprotein (Homo sapiens, UniProt P08183); assay: ATP hydrolysis by human P-gp assembled into membrane nanodiscs; assay type: biochemical; conditions: human MDR1 P-gp in nanodiscs
Sequence of Normal Human MDR1 P-glycoprotein (P08183 whole entry): as above
Text: To assess whether the observed discrepancies of compounds stimulating basal P-gp ATPase activity but not being transport substrates of the human pump in the cell culture assessments were due to the fact that these biochemical assays used a cysteineless variant of the mouse MDR3 P-glycoprotein, the experiments were repeated using normal human MDR1 P-gp. In order to stabilize the human protein for the activity assays, the protein was assembled into membrane nanodiscs as described herein.

[5] = tested on: DU145TXR; assay: Resensitization of DU145TXR to paclitaxel by 29 variants (MTT cell viability); assay type: cell-based, human; conditions: for Fold vs PTX ÷ 29: compared to parental compound 29
Text: The Group 1 ChemGen/docking routine produced variants of P-gp inhibitor 29 resensitize a multidrug resistant, P-gp overexpressing prostate cancer cell line to paclitaxel. The mitochondrial reduction potential of cells is often used as an indicator for cell viability using MTT assays^40-42. Using these assays it was observed that the five Group 1 derivatives of 29 predicted through the ChemGen/docking routine and synthesized here, 216, 227, 231, 541 and 551, re-sensitized the P-gp overexpressing prostate cancer cell line, DU145TXR^33, to the chemotherapeutic, paclitaxel (FIG. 9, showing results of assays at concentrations of 3 μM, 5 μM, 7 μM, and 10 μM).
Cytotoxicity of the chemotherapeutic, paclitaxel (PTX) to P-gp overexpressing prostate cancer cells, DU145TXR, was determined in the absence and presence of the ChemGen designed 29-variants, 216, 227, 231, 541 and 551. For each experimental compound IC50 values of PTX alone or in the presence of inhibitors, fold improvement of PTX sensitivity in the presence of inhibitor, and fold improvement of PTX sensitivity by variants compared to parental compound 29 are given.

[6] = 3 μM inhibitor, fold improvement of PTX sensitivity vs PTX alone

T1 sequence (P21447 whole entry C133A/C427A/C638A/C669A/C713A/C952A/C1070A/C1121A/C1223A): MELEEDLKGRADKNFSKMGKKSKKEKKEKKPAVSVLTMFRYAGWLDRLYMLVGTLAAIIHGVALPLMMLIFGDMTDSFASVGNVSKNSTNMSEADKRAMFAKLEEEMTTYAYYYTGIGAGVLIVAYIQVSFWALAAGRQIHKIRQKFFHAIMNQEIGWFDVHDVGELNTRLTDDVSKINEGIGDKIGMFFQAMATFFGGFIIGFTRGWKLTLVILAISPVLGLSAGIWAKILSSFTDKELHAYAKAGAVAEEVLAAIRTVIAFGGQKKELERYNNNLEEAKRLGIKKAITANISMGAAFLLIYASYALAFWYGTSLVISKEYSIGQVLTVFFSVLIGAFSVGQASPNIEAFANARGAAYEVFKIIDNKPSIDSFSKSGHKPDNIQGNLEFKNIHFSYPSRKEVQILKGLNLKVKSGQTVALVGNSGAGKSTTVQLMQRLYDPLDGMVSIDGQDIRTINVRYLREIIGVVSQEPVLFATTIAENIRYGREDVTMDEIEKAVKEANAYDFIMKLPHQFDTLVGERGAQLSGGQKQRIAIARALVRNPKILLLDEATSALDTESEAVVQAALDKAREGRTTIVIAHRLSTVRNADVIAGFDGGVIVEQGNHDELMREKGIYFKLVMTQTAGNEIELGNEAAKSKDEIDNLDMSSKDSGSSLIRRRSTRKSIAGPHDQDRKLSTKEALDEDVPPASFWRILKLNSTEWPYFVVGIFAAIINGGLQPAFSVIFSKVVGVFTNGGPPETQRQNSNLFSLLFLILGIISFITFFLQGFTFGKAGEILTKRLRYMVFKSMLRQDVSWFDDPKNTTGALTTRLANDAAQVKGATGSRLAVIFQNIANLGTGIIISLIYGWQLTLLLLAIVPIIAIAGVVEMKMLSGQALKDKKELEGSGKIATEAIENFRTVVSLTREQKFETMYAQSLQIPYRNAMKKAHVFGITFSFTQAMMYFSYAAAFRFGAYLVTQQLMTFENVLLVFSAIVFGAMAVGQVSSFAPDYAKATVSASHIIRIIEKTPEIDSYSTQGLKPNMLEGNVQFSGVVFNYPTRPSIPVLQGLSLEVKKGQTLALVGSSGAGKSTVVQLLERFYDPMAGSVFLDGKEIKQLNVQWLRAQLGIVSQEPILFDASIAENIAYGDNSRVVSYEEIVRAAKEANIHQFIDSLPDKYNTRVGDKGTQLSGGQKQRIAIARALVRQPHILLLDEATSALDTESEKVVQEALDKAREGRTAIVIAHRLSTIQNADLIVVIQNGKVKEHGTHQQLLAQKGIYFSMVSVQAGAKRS

SMILES	Maximum ATP binding mol SL-ANP bound/mol P-gp [1]	Transport substrate for P-gp [2]	Stimulated ATPase (% of DMSO) [3]	Basal ATPase (% of DMSO) [3]	Basal ATPase (% of DMSO) [4]	Stimulated ATPase (% of DMSO) [4]	Intracellular accumulation in the presence versus absence of TQR [2]	Fold vs PTX ÷ 29 ([5]; 5 μM inhibitor)	Fold vs PTX ([5]; 5 μM inhibitor, vs PTX alone)	Fold vs PTX ÷ 29 ([5]; 7 μM inhibitor)	Fold vs PTX ([5]; 7 μM inhibitor, vs PTX alone)	Fold vs PTX ÷ 29 ([5]; 10 μM inhibitor)	Fold vs PTX ([5]; 10 μM inhibitor, vs PTX alone)	also measured
COc1cc(NC(=O)CSCC(=O)Nc2cc(-c3cc(C)c(C)cc3C)nn2-c2ccccc2)cc(OC)c1OC [SMU29-238]	1.2 ± 0.1 mol SL-ANP bound/mol P-gp	very likely to be transport substrates	194 ± 22 % of DMSO	1143 ± 46 % of DMSO	89 ± 7 % of DMSO	61 ± 7 % of DMSO	very large and significant increase	–	–	–	–	–	–	–
Cc1cc(C)c(-c2cc(NC(=O)CSCC(=O)NC34CC5CC(CC(C5)C3)C4)n(-c3ccccc3)n2)cc1C [SMU29-278]	1.3 ± 0.1 mol SL-ANP bound/mol P-gp	very unlikely to be a transport substrate	41 ± 7 % of DMSO	78 ± 4 % of DMSO	74 ± 6 % of DMSO	63 ± 6 % of DMSO	did not show significantly different intracellular accumulations	–	–	–	–	–	–	–
Cc1cc(C)c(-c2cc(NC(=O)CSCC(=O)NCc3ccc(F)cc3)n(-c3ccccc3)n2)cc1C [SMU29-286]	1.9 ± 0.1 mol SL-ANP bound/mol P-gp	very likely to be transport substrates	98 ± 2 % of DMSO	143 ± 32 % of DMSO	95 ± 3 % of DMSO	59 ± 4 % of DMSO	more modest, but statistically significant increases	–	–	–	–	–	–	Effect on basal ATPase ([3]; listed as 286): stimulated basal ATPase only marginally or with no statistical significance
Cc1cc(C)c(-c2cc(NC(=O)CSCC(=O)Nc3ccc4ncsc4c3)n(-c3ccccc3)n2)cc1C [SMU29-255]	1.9 ± 0.1 mol SL-ANP bound/mol P-gp	very likely to be transport substrates	123 ± 15 % of DMSO	355 ± 7 % of DMSO	84 ± 9 % of DMSO	59 ± 6 % of DMSO	more modest, but statistically significant increases	–	–	–	–	–	–	–
Cc1cc(C)c(-c2cc(NC(=O)CSCC(=O)Nc3ccc4ccccc4c3)n(-c3ccccc3)n2)cc1C [SMU29-231]	1.6 ± 0.1 mol SL-ANP bound/mol P-gp	–	141 ± 18 % of DMSO	70 ± 0 % of DMSO	70 ± 4 % of DMSO	40 ± 3 % of DMSO	–	4.2 Fold	46 Fold	3.4 Fold	303 Fold	11 Fold	1060 Fold	Fold vs PTX ÷ 29 ([5]; 3 μM inhibitor, listed as 231): 4.1 Fold; Fold vs PTX [5, 6]: 14 Fold

Continued, in another order:

Maximum ATP binding mol SL-ANP bound/mol P-gp [1]	Transport substrate for P-gp [2]	Stimulated ATPase (% of DMSO) [3]	Basal ATPase (% of DMSO) [3]	Basal ATPase (% of DMSO) [4]	Stimulated ATPase (% of DMSO) [4]	SMILES	Intracellular accumulation in the presence versus absence of TQR [2]	Fold vs PTX ÷ 29 ([5]; 5 μM inhibitor)	Fold vs PTX ([5]; 5 μM inhibitor, vs PTX alone)	Fold vs PTX ÷ 29 ([5]; 7 μM inhibitor)	Fold vs PTX ([5]; 7 μM inhibitor, vs PTX alone)	Fold vs PTX ÷ 29 ([5]; 10 μM inhibitor)	Fold vs PTX ([5]; 10 μM inhibitor, vs PTX alone)	also measured
1.7 ± 0.1 mol SL-ANP bound/mol P-gp	no	108 ± 2 % of DMSO	105 ± 7 % of DMSO	69 ± 8 % of DMSO	64 ± 6 % of DMSO	Cc1cc(C)c(-c2cc(NC(=O)CSCC(=O)c3ccc4c(c3)Cc3ccccc3-4)n(-c3ccccc3)n2)cc1C [SMU29-216]	–	1.3 Fold	14 Fold	1 Fold	34 Fold	0.4 Fold	37 Fold	Effect on SL-ANP binding [1]: no; Cellular accumulation: ratio of plus Tariquidar over no Tariquidar [2]: 1.1; Effect on stimulated ATPase [3]: none; Effect on stimulated ATPase ([3]; listed as 216): did not affect; Effect on basal ATPase [3]: none; Effect on basal ATPase ([3]; listed as 216): did not significantly affect; Effect on basal ATPase [4]: inhibitor; Effect on stimulated ATPase [4]: inhibitor
1.6 ± 0.1 mol SL-ANP bound/mol P-gp	–	116 ± 4 % of DMSO	148 ± 4 % of DMSO	76 ± 8 % of DMSO	54 ± 7 % of DMSO	Cc1cc(C)c(-c2cc(NC(=O)CSCC(=O)NC(c3ccccc3)c3ccccc3)n(-c3ccccc3)n2)cc1C [SMU29-280]	did not show significantly different intracellular accumulations	–	–	–	–	–	–	Effect on basal ATPase ([3]; listed as 280): stimulated basal ATPase only marginally or with no statistical significance
1.8 ± 0.1 mol SL-ANP bound/mol P-gp	–	50 ± 2 % of DMSO	88 ± 4 % of DMSO	83 ± 7 % of DMSO	62 ± 5 % of DMSO	Cc1cc(C)c(-c2cc(NC(=O)CSCC(=O)N3c4ccccc4CCc4ccccc43)n(-c3ccccc3)n2)cc1C [SMU29-227]	–	3.7 Fold	41 Fold	10 Fold	353 Fold	5 Fold	530 Fold	Fold vs PTX ÷ 29 ([5]; 3 μM inhibitor, listed as 227): 3.8 Fold; Fold vs PTX [5, 6]: 13 Fold

Source: US20220175777A1, “Inhibitors of Multidrug Resistance Transporter P-Glycoprotein” (Southern Methodist University, priority 2014, published 2022)
